{
  "source": "paper PMC3078584",
  "about": "(Analytical biochemistry, 2010)",
  "target": "T1, His-Cbl(TKB) (Homo sapiens, UniProt P22681)",
  "T1 sequence (P22681 47-351 limits assumed)": "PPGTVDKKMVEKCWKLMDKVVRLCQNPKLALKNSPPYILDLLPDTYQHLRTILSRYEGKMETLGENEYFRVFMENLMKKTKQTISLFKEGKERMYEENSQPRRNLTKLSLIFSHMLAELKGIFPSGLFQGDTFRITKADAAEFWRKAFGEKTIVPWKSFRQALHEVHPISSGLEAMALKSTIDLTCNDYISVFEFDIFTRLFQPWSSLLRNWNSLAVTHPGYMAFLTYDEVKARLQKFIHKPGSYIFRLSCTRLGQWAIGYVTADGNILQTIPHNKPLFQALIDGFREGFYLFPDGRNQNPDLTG",
  "assay": "Competitive FP assay, displacement of labeled ZAP70 peptide 1 from His-Cbl",
  "assay_type": "binding",
  "conditions": "100 nM labeled peptide 1",
  "data": [
    {"smiles": "CC(=O)N[C@H](C(=O)N[C@@H](CC(C)C)C(=O)N[C@@H](CC(N)=O)C(=O)N[C@@H](CO)C(=O)N[C@@H](CC(=O)O)C(=O)NCC(=O)N[C@@H](Cc1ccc(OP(=O)(O)O)cc1)C(=O)N[C@H](C(=O)N1CCC[C@H]1C(=O)N[C@@H](CCC(=O)O)C(=O)N1CCC[C@H]1C(=O)N[C@@H](C)C(N)=O)[C@@H](C)O)[C@@H](C)O", "note": "[ZAP70 peptide 2, Ac-TLNSDGpYTPEPA-CONH2]", "values": [
      {"measurement": "ΔmP (competition)", "setting": "0.3 μM His-Cbl(TKB)", "value": "do not give measureable IC50 or ΔmP values"},
      {"measurement": "ΔmP (competition)", "setting": "1.25 μM His-Cbl(TKB)", "value": "do not give measureable IC50 or ΔmP values"},
      {"measurement": "ΔmP (competition)", "setting": "5 μM His-Cbl(TKB)", "value": 52.5, "unit": "mP"},
      {"measurement": "ΔmP (competition)", "setting": "9 μM His-Cbl(TKB)", "value": 85.2, "unit": "mP"},
      {"measurement": "ΔmP (competition)", "setting": "[…] His-Cbl(TKB)", "value": 25.7, "unit": "mP"}
    ]}
  ]
}
